Results as given in patent US9872873B2, “Process for preparing stable pharmaceutical compositions of compounds susceptible to hydrolysis” (Fresenius Kabi Oncology Limited, priority 2012, dated 2018).

Legend:
[1] = cited from earlier work
[2] = Stability profile of Decitabine pre-lyophilized bulk solution at −1° C. in water; type: physicochemical
[3] = Stability profile of Decitabine pre-lyophilized bulk solution at 25° C. in water; type: physicochemical
Protocol: The manufacture of a freeze dried product necessitates that the product is usually first manufactured as a solution, filtered to sterilize, aseptically filled, and finally lyophilized to remove the solvents. All of these unit operations require that the product be held in the solution state for a defined period of time, at least for 4 hours. A batch of Decitabine bulk solution was prepared by dissolving the drug (5 mg/mL) and buffer (Potassium dihydrogen phosphate 6.8 mg/mL, sodium hydroxide 1.16 mg/mL) in water and at room temperature.

[4] = Solution stability of Decitabine bulk solution in Water:Acetonitrile 80:20% v/v at −5 ± 2° C.; type: physicochemical
[5] = Freezing point of bulk solution of Decitabine using various solvents and buffers; type: physicochemical
Text: The advantages of using these non-aqueous solvent systems include: increased drug wetting or solubility, increased sublimation rates, increased pre-dried bulk solution or dried product stability, decreased reconstitution time, and enhancement of sterility assurance of the pre-dried bulk solution. A pre-requisite for such a solvent to be utilized efficiently for depression of freezing point of water would be to have satisfactory drug solubility in solvent system. […] Various solvents were evaluated for intended purpose e.g. Dimethylsulfoxide (1-30%), Ethanol (1-30%), Tertiary-butanol (1-30%), and their combinations were used in the range of 1-30% and thus were evaluated for their effect in decreasing the freezing point of bulk solution as summarized in Table VII. Although Ethanol decreased the freezing point of the drug solution and ensured drug solubility at low temperature, it was not suitable as a solvent for lyophilization as lyophilized cake could not be formed using this solvent system. Dimethyl sulphoxide is not suitable solvent for Lyophilization as it is difficult to remove during lyophilization.

[6] = Initial (5 minutes after drug dissolution)

Related Substances: 5-Azacytosine ([2]; 1 hr): 0.03%
Related Substances: H-unk (Highest Unknown Impurity) ([2]; 1 hr): 0.05%
Related Substances: SP1 ([2]; 1 hr): 0.03%
Related Substances: SP2 ([2]; 1 hr): 0.01%
Related Substances: SP3 ([2]; 1 hr): 0.06%
Related Substances: SP4 ([2]; 1 hr): 0.85%
Related Substances: SP6 ([2]; 1 hr): 0.07%
Related Substances: Total ([2]; 1 hr): 1.25%
Related Substances: α-Decitabine ([2]; 1 hr): 0.02%
Related Substances: 5-Azacytosine ([2]; 2 hr): 0.04%
Related Substances: H-unk (Highest Unknown Impurity) ([2]; 2 hr): 0.05%
Related Substances: SP1 ([2]; 2 hr): 0.03%
Related Substances: SP2 ([2]; 2 hr): 0.02%
Related Substances: SP3 ([2]; 2 hr): 0.05%
Related Substances: SP4 ([2]; 2 hr): 1.50%
Related Substances: SP6 ([2]; 2 hr): 0.22%
Related Substances: Total ([2]; 2 hr): 2.06%
Related Substances: α-Decitabine ([2]; 2 hr): 0.02%
Related Substances: 5-Azacytosine ([2]; 3 hr): 0.03%
Related Substances: H-unk (Highest Unknown Impurity) ([2]; 3 hr): 0.05%
Related Substances: SP1 ([2]; 3 hr): 0.03%
Related Substances: SP2 ([2]; 3 hr): 0.02%
Related Substances: SP3 ([2]; 3 hr): 0.05%
Related Substances: SP4 ([2]; 3 hr): 2.13%
Related Substances: SP6 ([2]; 3 hr): 0.21%
Related Substances: Total ([2]; 3 hr): 2.68%
Related Substances: α-Decitabine ([2]; 3 hr): 0.02%
Related Substances: 5-Azacytosine ([2]; 4 hr): 0.03%
Related Substances: H-unk (Highest Unknown Impurity) ([2]; 4 hr): 0.05%
Related Substances: SP1 ([2]; 4 hr): 0.03%
Related Substances: SP2 ([2]; 4 hr): 0.04%
Related Substances: SP3 ([2]; 4 hr): 0.05%
Related Substances: SP4 ([2]; 4 hr): 1.71%
Related Substances: SP6 ([2]; 4 hr): 0.95%
Related Substances: Total ([2]; 4 hr): 3.07%
Related Substances: α-Decitabine ([2]; 4 hr): 0.01%
Related Substances: 5-Azacytosine ([2]; Initial): 0.03%
Related Substances: H-unk (Highest Unknown Impurity) ([2]; Initial): 0.05%
Related Substances: SP1 ([2]; Initial): 0.03%
Related Substances: SP2 ([2]; Initial): 0.01%
Related Substances: SP3 ([2]; Initial): 0.06%
Related Substances: SP4 ([2]; Initial): 0.35%
Related Substances: SP6 ([2]; Initial): 0.04%
Related Substances: Total ([2]; Initial): 0.70%
Related Substances: 5-Azacytosine ([3]; 2 h): 0.05%
Related Substances: H-unk (Highest Unknown Impurity) ([3]; 2 h): 12.42%
Related Substances: Six member Decitabine ([3]; 2 h): 0.34%
Related Substances: Total ([3]; 2 h): 25.44%
Related Substances: α-Decitabine ([3]; 2 h): 0.00%
Related Substances: 5-Azacytosine ([3]; 4 h): 0.05%
Related Substances: H-unk (Highest Unknown Impurity) ([3]; 4 h): 14.14%
Related Substances: Six member Decitabine ([3]; 4 h): 0.81%
Related Substances: Total ([3]; 4 h): 31.46%
Related Substances: α-Decitabine ([3]; 4 h): 0.00%
Related Substances: 5-Azacytosine [3, 6]: 0.00%
Related Substances: H-unk (Highest Unknown Impurity) [3, 6]: 10.89%
Related Substances: Six member Decitabine [3, 6]: 0.05%
Related Substances: Total [3, 6]: 12.12%
Related Substances: α-Decitabine [3, 6]: 0.00%
Related Substances: 5-Azacytosine ([4]; 4 hrs): 0.02%
Related Substances: H-unk (Highest Unknown Impurity) ([4]; 4 hrs): 0.03%
Related Substances: SP4 ([4]; 4 hrs): 0.28%
Related Substances: SP6 ([4]; 4 hrs): 0.29%
Related Substances: Total ([4]; 4 hrs): 0.67%
Related Substances: 5-Azacytosine ([4]; Initial): 0.01%
Related Substances: H-unk (Highest Unknown Impurity) ([4]; Initial): 0.03%
Related Substances: SP4 ([4]; Initial): 0.04%
Related Substances: SP6 ([4]; Initial): 0.05%
Related Substances: Total ([4]; Initial): 0.17%
Freezing Point of bulk solution ([5]; 5% DMSO + 10% Ethanol + 20% Tertiary-butanol + buffer): −8 to −10 °C
Freezing Point of bulk solution ([5]; 5% DMSO +10% Ethanol + buffer): −5 °C
Freezing Point of bulk solution ([5]; 5% DMSO + 15% Ethanol + buffer): −6 to −9 °C
Freezing Point of bulk solution ([5]; Acetonitrile 5%): −2 to −3 °C
Freezing Point of bulk solution ([5]; Acetonitrile 10%): −3 to −4 °C
Freezing Point of bulk solution ([5]; Acetonitrile 15%): −4 to −6 °C
Freezing Point of bulk solution ([5]; Acetonitrile 20%): −8 °C
Freezing Point of bulk solution ([5]; DMSO 1%): −0.5 °C
Freezing Point of bulk solution ([5]; DMSO 2%): −0.8 °C
Freezing Point of bulk solution ([5]; DMSO 5%): −1.6 °C
Freezing Point of bulk solution ([5]; DMSO 10%): −3.0 °C
Freezing Point of bulk solution ([5]; DMSO 15%): −5.5 °C
Freezing Point of bulk solution ([5]; DMSO 20%): −13.9 °C
Freezing Point of bulk solution ([5]; DMSO 30%): −16.0 °C
Freezing Point of bulk solution ([5]; Ethanol 1%): −0.5 °C
Freezing Point of bulk solution ([5]; Ethanol 2%): −0.7 °C
Freezing Point of bulk solution ([5]; Ethanol 5%): −2.0 °C
Freezing Point of bulk solution ([5]; Ethanol 10%): −2.5 °C
Freezing Point of bulk solution ([5]; Ethanol 15%): −6.1 °C
Freezing Point of bulk solution ([5]; Ethanol 20%): −13.8 °C
Freezing Point of bulk solution ([5]; Ethanol 30%): −14.3 °C
Freezing Point of bulk solution ([5]; Tertiary-butanol 1%): −0.1 °C
Freezing Point of bulk solution ([5]; Tertiary-butanol 2%): −1.0 °C
Freezing Point of bulk solution ([5]; Tertiary-butanol 5%): −2.5 °C
Freezing Point of bulk solution ([5]; Tertiary-butanol 10%): −4.3 °C
Freezing Point of bulk solution ([5]; Tertiary-butanol 15%): −6.0 °C
Freezing Point of bulk solution ([5]; Tertiary-butanol 20%): −9.3 °C
Freezing Point of bulk solution ([5]; Tertiary-butanol 30%): −12.9 °C
Freezing Point of bulk solution ([5]; n-butanol): Restricted Miscibility
Compound: Nc1ncn([C@H]2C[C@H](O)[C@@H](CO)O2)c(=O)n1 [Decitabine, 5-aza-2′ deoxycytidine]
Maximum storage time of diluted solution until administration ([1]; prepared with cold (2° C.-8° C.) infusion fluids, stored at 2° C.-8° C.): ≤ 7 h
Time of use after reconstitution without cold infusion fluids ([1]; reconstituted with Sterile Water for Injection): ≤ 15 min
